Source: BindingDB's records for doi:10.1021/jm049408n (University of Camerino, 2005)

Target: Adenosine receptor A3 (Bos taurus)
Test: Displacement of [125I]AB-MECA from adenosine A3 receptors in bovine cortical membranes

Ki: 240 nM
Structure (SMILES): CNC(=O)[C@H]1O[C@@H](n2cnc3c(NCc4cccc(I)c4)ncnc32)[C@](C)(O)[C@@H]1O [3,4-Dihydroxy-5-[6-(3-iodo-benzylamino)-purin-9-yl]-4-methyl-tetrahydro-furan-2-carboxylic acid methylamide]
